Test results published in patent US20120220571A1, “HIV INTEGRASE INHIBITORS” (priority 2009, published 2012).

What was measured:
HIV-1 integrase = biological target: T1, HIV-1 integrase (Human immunodeficiency virus type 1 group M subtype B, UniProt P04585); test: HIV integrase assay: strand transfer catalyzed by recombinant integrase; assay type: biochemical; conditions: inhibition of strand transfer activity
T1 construct: Strand Transfer Catalyzed by Recombinant Integrase
Method: Assays for the strand transfer activity of HIV-1 integrase were conducted in accordance with WO 02/30930 for recombinant integrase. […] For example, the compounds prepared in Examples 1 to 4 were tested in the integrase assay and found to have the IC50 values in Table B.
Further description on conducting the assay using preassembled complexes is found in Wolfe, A. L. et al., J. Virol. 1996, 70: 1424-1432, Hazuda et al., J. Virol. 1997, 71: 7005-7011; Hazuda et al., Drug Design and Discovery 1997, 15: 17-24; and Hazuda et al., Science 2000, 287: 646-650.

HIV = test: Inhibition of acute HIV infection, single cycle infectivity ("vertical") assay in HeLa P4-2 cells; assay type: cell-based; conditions: Human immunodeficiency virus 1, IIIB / NL43, HeLaP4-2
Method: An assay for measuring the inhibition of acute HIV infection with HeLa P4-2 cells in a single cycle infectivity assay (alternatively referred to as the “vertical” assay) was conducted in accordance with Joyce, J. G., et al., J. Biol. Chem. 2002, 277, 45811, Hazuda, D. J. et al., Science 2000, 287, 646, and Kimpton, J. et al, J. Virol. 1992, 66, 2232. Infectious virus was produced by transfecting 293T cells with HIV proviral DNA in which the integrase gene was derived from a IIIB isolate and the remainder of the HIV genome was derived from the NL4-3 isolate. […] For example, the compounds of Examples 1 to 4 were tested in this assay and found to have the IC50 values in Table C.

Structure (SMILES): O=C1c2c(occ(O)c2=O)CCN1Cc1ccc(F)cc1 [Example 1, 6-(4-Fluorobenzyl)-3-hydroxy-7,8-dihydro-4H-pyrano[3,2-c]pyridine-4,5(6H)-dione]
- IC50 (HIV-1 integrase): 3200 nM
- IC50 (HIV): 43000 nM

Structure (SMILES): C=CCc1c(O)c(=O)c2c(n1C)CCN(Cc1ccc(F)cc1)C2=O [Example 2, 2-Allyl-6-(4-fluorobenzyl)-3-hydroxy-1-methyl-7,8-dihydro-1,6-naphthyridine-4,5(1H,6H)-dione]
- IC50 (HIV-1 integrase): 100 nM
- IC50 (HIV): 5000 nM

Structure (SMILES): C=CCCn1c2c(c(=O)c(O)c1C(C)C=C)C(=O)N(Cc1ccc(F)cc1)CC2 (centres unmarked) [Example 3, 1-But-3-en-1-yl-6-(4-fluorobenzyl)-3-hydroxy-2-(1-methylprop-2-en-1-yl)-7,8-dihydro-1,6-napthyridine-4,5(1H,6H)-dione]
- IC50 (HIV-1 integrase): 100 nM
- IC50 (HIV): 1000 nM

Structure (SMILES): CC1CCCCn2c3c(c(=O)c(O)c21)C(=O)N(Cc1ccc(F)cc1)CC3 (centres unmarked) [Example 4, 3-(4-Fluorobenzyl)-6-hydroxy-7-methyl-2,3,8,9,10,11-hexahydroazepino[1,2-a]-1,6-napthyridine-4,5(1H,7H)-dione]
- IC50 (HIV-1 integrase): 120 nM
- IC50 (HIV): 5000 nM
